According to patent US20060058361A1, “Therapeutic diphenyl ether ligands” (Pfizer Inc, priority 2004, published 2006):

| Structure (SMILES) | melting point [°C] |
| --- | --- |
| CNCc1cc(C)c([S+](C)[O-])cc1Oc1ccc(Cl)c(C)c1C (centres unmarked) [Example 19, [2-(4-Chloro-2,3-dimethylphenoxy)-4-methanesulfinyl-5-methylbenzyl]methylamine] | 220 to 222 |
| CNC(C)c1cc(F)c(Cl)cc1Oc1ccc(Cl)cc1F (centres unmarked) [Example 41, {1-[4-Chloro-2-(4-chloro-2-fluorophenoxy)-5-fluorophenyl]ethyl}-methylamine] | 178 to 180 |
| CNCc1ccc(S(C)(=O)=O)cc1Oc1ccc2c(c1)CCC2 [Example 58, [2-(Indan-5-yloxy)-4-methanesulfonylbenzyl]methylamine] | 88 to 90 |
| CCSc1ccc(CNC)c(Oc2ccc(Cl)cc2)c1 [Example 60, [2-(4-Chlorophenoxy)-4-ethylsulfanylbenzyl]methylamine] | 158 to 160 |

Results, then the compound that gave them:

| melting point [°C] | Structure (SMILES) |
| --- | --- |
| 212 to 214 | CNCc1cc(C)c(Cl)cc1Oc1ccc(Cl)cc1F [Example 43, [4-Chloro-2-(4-chloro-2-fluorophenoxy)-5-methylbenzyl]methylamine] |
| 134 to 136 | CNCc1cc(C)c(C)cc1Oc1ccc(Cl)cc1F [Example 45, [2-(4-Chloro-2-fluorophenoxy)-4,5-dimethylbenzyl]methylamine] |
| 186 to 188 | CNCc1ccc(OC)cc1Oc1ccc(Cl)cc1F [Example 46, [2-(4-Chloro-2-fluorophenoxy)-4-methoxy-benzyl]methylamine] |
| 198 to 220 | CNCc1ccc(C)cc1Oc1ccc(Cl)cc1F [Example 47, [2-(4-Chloro-2-fluorophenoxy)-4-methylbenzyl]methylamine] |
| 204 to 206 | CNCc1ccc(Br)cc1Oc1ccc(Cl)cc1F [Example 50, [4-Bromo-2-(4-chloro-2-fluorophenoxy)benzyl]methylamine] |
| 184 to 186 | CNCc1cc(F)c(S(C)(=O)=O)cc1Oc1ccc(Cl)cc1F [Example 52, [2-(4-Chloro-2-fluorophenoxy)-5-fluoro-4-methanesulfonylbenzyl]methylamine] |
| 204 to 206 | CNCc1ccc(Cl)cc1Oc1ccc(F)c2c1CCC2 [Example 57, [4-Chloro-2-(7-fluoroindan-4-yloxy)benzyl]methylamine] |
